Article PMC9006954, “Computer-Based Immunoinformatic Analysis to Predict Candidate T-Cell Epitopes for SARS-CoV-2 Vaccine Design” (Frontiers in Immunology, 2022)
Where no end group is shown, it is not given here.

Target: T1, HLA-A*11:01 protein (Homo sapiens, UniProt P04439, A114D/D185E/E176A/F33Y/L180Q/S129P/T187R)
T1 construct: biotin (biotinylated)
Assay: Bio-Layer Interferometry (BLI) affinity test, Octet R8
Conditions: Octet R8, SSA sensors, peptides 100-3.125 µM in PBST (PBS+0.02%Tween20+1% DMSO), balance, binding, dissociation 60 s each

Sequence	KD	Kd [µM]
SQCVNLTTR [reference compound]	Non-binding	
KCYGVSPTK [reference compound]		23.5
FSTFKCYGV [reference compound]		29.1
GVSPTKLNDL [reference compound]		656
